Test results as given in ChEMBL document CHEMBL1136486, “Novel 3,4-dihydroquinolin-2(1H)-one inhibitors of human glycogen phosphorylase a” (Bioorg Med Chem Lett, 2003).

What was measured:
[1] = biological target: T1, Glycogen phosphorylase, liver form (Homo sapiens, UniProt P06737); experiment: Inhibitory concentration against recombinant human liver glycogen phosphorylase a (HLGPa)
T1 sequence (P06737 whole entry): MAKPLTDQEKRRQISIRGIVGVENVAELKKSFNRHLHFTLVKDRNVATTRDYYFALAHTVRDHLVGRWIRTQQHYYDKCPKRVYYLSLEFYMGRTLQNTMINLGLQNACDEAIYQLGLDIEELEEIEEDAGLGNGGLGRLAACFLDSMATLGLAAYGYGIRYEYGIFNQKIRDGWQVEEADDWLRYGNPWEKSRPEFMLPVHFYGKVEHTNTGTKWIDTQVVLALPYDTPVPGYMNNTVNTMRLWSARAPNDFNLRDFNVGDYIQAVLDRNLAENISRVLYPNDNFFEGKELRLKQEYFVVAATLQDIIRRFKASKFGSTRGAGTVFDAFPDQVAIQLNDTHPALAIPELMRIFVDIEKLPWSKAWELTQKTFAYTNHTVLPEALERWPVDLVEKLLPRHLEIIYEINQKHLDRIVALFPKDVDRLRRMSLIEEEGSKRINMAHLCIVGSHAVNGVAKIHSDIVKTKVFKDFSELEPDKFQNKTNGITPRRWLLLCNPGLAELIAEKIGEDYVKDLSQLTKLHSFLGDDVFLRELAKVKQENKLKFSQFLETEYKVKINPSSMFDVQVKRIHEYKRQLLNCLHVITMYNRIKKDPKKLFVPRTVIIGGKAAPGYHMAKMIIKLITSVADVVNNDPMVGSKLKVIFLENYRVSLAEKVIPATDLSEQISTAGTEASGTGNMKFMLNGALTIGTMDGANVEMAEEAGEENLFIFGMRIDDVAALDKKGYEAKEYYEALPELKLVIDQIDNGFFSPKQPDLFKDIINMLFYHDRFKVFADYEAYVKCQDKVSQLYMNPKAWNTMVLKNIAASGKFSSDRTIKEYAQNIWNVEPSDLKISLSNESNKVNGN

[2] = biological target: T2, Glycogen phosphorylase, muscle form (Homo sapiens, UniProt P11217); experiment: Inhibitory concentration against recombinant human muscle glycogen phosphorylase a (HMGPa); type: single protein
T2 sequence (P11217 whole entry): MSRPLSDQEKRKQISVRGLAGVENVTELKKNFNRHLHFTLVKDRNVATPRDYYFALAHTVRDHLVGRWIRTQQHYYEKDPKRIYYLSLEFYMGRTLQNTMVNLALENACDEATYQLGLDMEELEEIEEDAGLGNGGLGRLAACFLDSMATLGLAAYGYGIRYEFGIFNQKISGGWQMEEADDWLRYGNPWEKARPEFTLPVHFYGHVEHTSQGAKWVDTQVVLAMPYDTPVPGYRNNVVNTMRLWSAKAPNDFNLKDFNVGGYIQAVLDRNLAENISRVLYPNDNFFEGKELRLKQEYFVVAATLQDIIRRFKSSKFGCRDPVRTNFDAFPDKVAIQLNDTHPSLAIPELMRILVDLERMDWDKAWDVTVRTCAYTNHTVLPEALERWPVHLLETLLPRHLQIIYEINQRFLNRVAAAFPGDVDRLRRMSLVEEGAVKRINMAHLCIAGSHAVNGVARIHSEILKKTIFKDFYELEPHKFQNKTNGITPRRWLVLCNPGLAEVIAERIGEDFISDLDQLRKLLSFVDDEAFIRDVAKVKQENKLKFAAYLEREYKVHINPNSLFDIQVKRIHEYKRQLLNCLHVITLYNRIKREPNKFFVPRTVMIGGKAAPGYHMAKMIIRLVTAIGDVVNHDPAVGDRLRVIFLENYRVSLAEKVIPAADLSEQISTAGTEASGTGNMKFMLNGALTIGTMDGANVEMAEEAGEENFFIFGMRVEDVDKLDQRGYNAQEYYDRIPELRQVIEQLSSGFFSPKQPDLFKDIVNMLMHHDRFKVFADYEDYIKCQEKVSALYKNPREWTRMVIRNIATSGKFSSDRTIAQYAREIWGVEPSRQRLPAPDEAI

[3] = species: Rattus norvegicus; experiment: Inhibition of glucose production in glucagon-stimulated glycogenolysis in primary rat hepatocytes; type: functional; conditions: Hepatocyte

CN1C(=O)C(NC(=O)c2cc3cc(Br)ccc3[nH]2)Cc2ccccc21 (configuration not stated)
IC50 [1]: 30 nM
IC50 [2]: 73 nM

O=C(N[C@H]1Cc2ccccc2NC1=O)c1cc2cc(Cl)ccc2[nH]1
EC50 [3]: 7800 nM
IC50 [1]: 47 nM
IC50 [2]: 39 nM

CN1C(=O)[C@H](NC(=O)c2cc3cc(Cl)ccc3[nH]2)Cc2ccccc21
EC50 [3]: 13200 nM
IC50 [1]: 61 nM
IC50 [2]: 58 nM

COC(=O)c1ccc2[nH]c(C(=O)NC3Cc4ccccc4N(C)C3=O)cc2c1 (configuration not stated)
IC50 [1]: 5300 nM
IC50 [2]: 2700 nM

CN1C(=O)C(NC(=O)c2cc3ccccc3[nH]2)Cc2ccccc21 (configuration not stated)
IC50 [1]: 160 nM
IC50 [2]: 56 nM

COc1ccc2[nH]c(C(=O)NC3Cc4ccccc4N(C)C3=O)cc2c1 (configuration not stated)
IC50 [1]: 1700 nM
IC50 [2]: 1700 nM

CN1C(=O)C(NC(=O)c2cc3cccc(N)c3[nH]2)Cc2ccccc21 (configuration not stated)
IC50 [1]: 1200 nM
IC50 [2]: 6800 nM

O=C(N[C@@H]1Cc2ccccc2N(Cc2ccccn2)C1=O)c1cc2cc(Cl)ccc2[nH]1
EC50 [3]: 14500 nM
IC50 [1]: 120 nM

Cc1ccc2[nH]c(C(=O)NC3Cc4ccccc4N(C)C3=O)cc2c1 (configuration not stated)
IC50 [1]: 120 nM
IC50 [2]: 98 nM

CN1C(=O)C(NC(=O)c2cc3cc(F)ccc3[nH]2)Cc2ccccc21 (configuration not stated)
IC50 [1]: 120 nM
IC50 [2]: 89 nM

COC(=O)c1cc2[nH]c(C(=O)NC3Cc4ccccc4N(C)C3=O)cc2cc1Cl (configuration not stated)
IC50 [1]: > 20000 nM
IC50 [2]: > 20000 nM

CN1C(=O)C(NC(=O)c2cc3cc(-c4ccccc4)ccc3[nH]2)Cc2ccccc21 (configuration not stated)
IC50 [1]: > 20000 nM
IC50 [2]: > 20000 nM

CN1C(=O)C(NC(=O)c2cc3cc(C#N)ccc3[nH]2)Cc2ccccc21 (configuration not stated)
IC50 [1]: 180 nM
IC50 [2]: 110 nM

O=C(N[C@H]1Cc2ccccc2N(Cc2ccccn2)C1=O)c1cc2cc(Cl)ccc2[nH]1
EC50 [3]: 11600 nM
IC50 [1]: 140 nM

CCc1ccc2[nH]c(C(=O)NC3Cc4ccccc4N(C)C3=O)cc2c1 (configuration not stated)
IC50 [1]: 2500 nM
IC50 [2]: 850 nM

CN1C(=O)C(NC(=O)c2cc3cccc([N+](=O)[O-])c3[nH]2)Cc2ccccc21 (configuration not stated)
IC50 [1]: 300 nM
IC50 [2]: 120 nM

O=C(N[C@@H]1Cc2ccccc2NC1=O)c1cc2cc(Cl)ccc2[nH]1
EC50 [3]: 1800 nM
IC50 [1]: 25 nM
IC50 [2]: 14 nM

O=C(NC1Cc2ccccc2NC1=O)c1ccc(Cl)c(Cl)c1 (configuration not stated)
IC50 [1]: 1370 nM
IC50 [2]: 2310 nM

CN1C(=O)C(NC(=O)c2cc3ccc(-c4ccccc4)cc3[nH]2)Cc2ccccc21 (configuration not stated)
IC50 [1]: > 20000 nM
IC50 [2]: > 20000 nM

CN1C(=O)[C@@H](NC(=O)c2cc3cc(Cl)ccc3[nH]2)Cc2ccccc21
EC50 [3]: 8400 nM
IC50 [1]: 57 nM
IC50 [2]: 57 nM

CN1C(=O)C(NC(=O)c2cc3cc(C(F)(F)F)ccc3[nH]2)Cc2ccccc21 (configuration not stated)
IC50 [1]: 1500 nM
IC50 [2]: 550 nM

CN1C(=O)C(NC(=O)c2cc3cc(Cl)ccc3[nH]2)CCc2ccccc21 (configuration not stated)
IC50 [1]: 305 nM
IC50 [2]: 105 nM

COC(=O)c1c(Cl)ccc2[nH]c(C(=O)NC3Cc4ccccc4N(C)C3=O)cc12 (configuration not stated)
IC50 [1]: > 20000 nM
IC50 [2]: > 20000 nM

O=C(NC1CCc2ccccc2NC1=O)c1cc2ccccc2[nH]1 (configuration not stated)
IC50 [1]: 1060 nM
IC50 [2]: 2440 nM

CN1C(=O)C(NC(=O)c2cc3cc(Cl)cc(F)c3[nH]2)Cc2ccccc21 (configuration not stated)
IC50 [1]: 83 nM
IC50 [2]: 55 nM

CN1C(=O)C(NC(=O)c2cc3c(Cl)cccc3[nH]2)Cc2ccccc21 (configuration not stated)
IC50 [1]: 1600 nM
IC50 [2]: 2100 nM

CN1C(=O)C(NC(=O)c2cc3ccc(Cl)cc3[nH]2)Cc2ccccc21 (configuration not stated)
IC50 [1]: 99 nM
IC50 [2]: 69 nM

Cc1n[nH]c(CN2C(=O)C(NC(=O)c3cc4cc(Cl)ccc4[nH]3)Cc3ccccc32)n1 (racemic)
EC50 [3]: 1200 nM
IC50 [1]: 140 nM

O=C(NC1Cc2ccccc2N(Cc2cccnc2)C1=O)c1cc2cc(Cl)ccc2[nH]1 (racemic)
EC50 [3]: 16600 nM
IC50 [1]: 130 nM

O=C(NC1Cc2ccccc2N(Cc2ccccn2)C1=O)c1cc2cc(Cl)ccc2[nH]1 (racemic)
EC50 [3]: 20700 nM
IC50 [1]: 110 nM

O=C(NC1CCc2ccccc2NC1=O)c1ccc(Cl)c(Cl)c1 (racemic)
IC50 [1]: 6400 nM
IC50 [2]: 21700 nM

O=C(NC1Cc2ccccc2NC1=O)c1cc2cc(Cl)ccc2[nH]1 (racemic)
IC50 [1]: 44 nM
IC50 [2]: 38 nM

CN1C(=O)C(NC(=O)c2cc3cc(Cl)ccc3[nH]2)Cc2ccccc21 (racemic)
IC50 [1]: 25 nM
IC50 [2]: 32 nM

O=C(NC1Cc2ccccc2N(Cc2nnc(-c3ncc[nH]3)[nH]2)C1=O)c1cc2cc(Cl)ccc2[nH]1 (racemic)
EC50 [3]: 3700 nM
IC50 [1]: 160 nM
